Experiments:
[1] = molecular target: 89.6 Env (Human immunodeficiency virus type 1 group M subtype B, UniProt Q73372); format: cell-based, HIV-1
[2] = test system: HIV-1 IIIB; experiment: Screening for virucidal activity against HIV-1 IIIB, MAGI cell assay
[3] = molecular target: T1, HIV-1 Env protein (HXB2 Env) (Human immunodeficiency virus type 1 group M subtype B, UniProt P04578); format: cell-based
T1 construct: expressed in transfected cells; host or cells: 293T cells transfected with pIIIenv3-1 plus pCMVTAT; cocultured with 3T3 cells expressing CD4 and CXCR4

[4] = test system: MAGI cells; experiment: Trypan blue exclusion cytotoxicity test; conditions: four concentrations of porphyrin
Protocol: A standard trypan blue exclusion test (Strober, Trypan blue exclusion test of cell viability, p. A.3.3-A.3.4, in J. E. Coligan and A. M. Kruisbeek (ed.), Current protocols in immunology, Wiley-Greene, New York, N.Y., 1994) was used. Compounds at a concentration of 50 μg/ml in growth medium were added to a 96-well plate with MAGI cells. After 72 hr cells were detached by standard trypsin solution (0.25% trypsin-0.05% EDTA) and diluted 1:10 in growth medium. To test cell viability, 1 part of 0.4% trypan blue and 9 parts of diluted cells were mixed, incubated the mixture about 2 min at room temperature, and applied a drop of the trypan blue/cell mixture to a hemacytometer. Using a binocular microscope, the stained (nonviable) and unstained (viable) cells were then counted. The fraction of viable cells was calculated as the number of unstained cells in the wells treated with compound as a percentage of the number in control wells.
The selective index value was defined as the CC50/EC50 ratio.
A trypan blue exclusion test to determine possible toxicity of the test compounds. Compounds at a concentration of 50 μg/ml in growth medium were added to MAGI cells. […] After 72 hr, a trypan blue assay was used to compare cell viability in cells treated with compounds to untreated cells.

[5] = test system: HSV-1(F) or HSV-2(G); experiment: In vitro HSV inactivation, plaque assay on Vero cells; format: cell-based, herpes simplex virus; conditions: room temperature, in the dark, up to 60 minutes
Protocol: Either HSV-1(F) or HSV-2(G) (10^7 pfu) was mixed with 1 ml of porphyrin at the concentration indicated in Dulbecco's modified Eagle's medium (DME) with 1% newborn calf serum. All assays were performed in duplicate. All tubes were wrapped in foil to keep out light, and ambient room light was reduced as much as was practicable. Virus and porphyrin were incubated together at room temperature for times up to 60 minutes (Table 2). Following incubation, 10 fold serial dilutions were performed in DME with 1% newborn serum, using tubes wrapped in foil. Virus was diluted 20,000 fold and plated on Vero cells. Following a 2 hour incubation with the cells, the inoculum was removed and cells were overlaid with DME with 1% newborn calf serum and 0.2% human gamma globulin. Cells were fixed and stained, and plaques counted, 2 days after infection.

[6] = test system: HIV-189.6; experiment: Inactivation of HIV-1 89.6 infectivity; format: cell-based
[7] = test system: SIVmac1A11; experiment: Inactivation of SIVmac1A11 infectivity; format: cell-based, SIV
[8] = molecular target: T2, binding of HIV-1 IIIB gp120 to CD4 (Human immunodeficiency virus type 1 group M subtype B, UniProt P04578); experiment: gp120-CD4 binding assay (ELISA); conditions: 1 hr at room temperature
T2 construct: The recombinant IIB gp120 protein (baculovirus-expressed) was obtained from Intracel; purchased Intracel (Cambridge, Mass.) for gp120; host or cells: baculovirus-expressed (gp120)
Protocol: To investigate the possible effect of porphyrin compounds on binding of HIV-1 IIIB gp120 to CD4, a gp120 CD4 binding assay was developed. The assay was developed as a modification of a capture gp120 ELISA kit (Intracel Corporation). Briefly, a 96-well plate was coated with soluble CD4 and 0.5 μg of HIV-1 IIIB gp120 per well was incubated in the presence or absence of test compounds for 1 hr at room temperature. After four washes with buffer to remove unbound proteins, the bound gp120 was detected by anti-gp120 peroxidase-conjugated antibodies and quantitated by the protocol provided by the manufacturer.

[9] = molecular target: IIIB Env of HIV 1 (Human immunodeficiency virus type 1 group M subtype B, UniProt P03375); format: cell-based

89.6 Env, sequence (Q73372 32-719 limits assumed): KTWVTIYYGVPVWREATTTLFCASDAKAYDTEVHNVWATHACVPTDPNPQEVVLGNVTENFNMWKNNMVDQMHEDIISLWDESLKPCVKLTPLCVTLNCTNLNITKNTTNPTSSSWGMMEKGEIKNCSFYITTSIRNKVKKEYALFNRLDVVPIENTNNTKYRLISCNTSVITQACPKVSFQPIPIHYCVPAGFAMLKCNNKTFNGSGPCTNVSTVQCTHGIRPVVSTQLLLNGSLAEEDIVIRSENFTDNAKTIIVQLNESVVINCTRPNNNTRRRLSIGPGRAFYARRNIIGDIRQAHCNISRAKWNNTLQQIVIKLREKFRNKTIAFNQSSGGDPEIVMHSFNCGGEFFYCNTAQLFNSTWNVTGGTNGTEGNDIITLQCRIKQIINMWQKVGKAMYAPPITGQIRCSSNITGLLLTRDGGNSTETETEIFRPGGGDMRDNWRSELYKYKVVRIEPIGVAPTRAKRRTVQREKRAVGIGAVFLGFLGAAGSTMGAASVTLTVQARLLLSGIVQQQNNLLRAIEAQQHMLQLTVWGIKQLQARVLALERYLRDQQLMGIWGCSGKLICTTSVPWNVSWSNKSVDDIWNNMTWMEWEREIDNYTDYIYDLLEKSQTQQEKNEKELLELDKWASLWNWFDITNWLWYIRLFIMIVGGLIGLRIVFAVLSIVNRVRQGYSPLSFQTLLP
89.6 Env, sequence (Q73372 509-719 partner limits assumed): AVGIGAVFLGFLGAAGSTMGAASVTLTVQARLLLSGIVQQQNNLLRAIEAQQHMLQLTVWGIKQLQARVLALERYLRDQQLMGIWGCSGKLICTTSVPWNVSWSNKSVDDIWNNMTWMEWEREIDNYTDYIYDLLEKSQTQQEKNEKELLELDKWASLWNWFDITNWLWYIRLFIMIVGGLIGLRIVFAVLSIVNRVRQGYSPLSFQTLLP

Compound | Presence of nuclei in syncytia, VV89.6 envt R5, 6 h [1] | Presence of nuclei in syncytia, VV89.6 envt R5, 23 h [1] | Presence of nuclei in syncytia, VV89.6 envt X4, 23 h [1] | selective index CC50/EC50 [2] | Presence of nuclei in syncytia, pIIIenv X4, 6 h [3] | CC50 (concentration that reduced the viability of cells by 50%) [4] | inactivating HSVs [5] | activity at low concentration ([2]; 0.5 μg/ml, HIV-1 IIIB, MAGI cells) | kinetics of inactivation of HIV-1 IIIB ([2]; 2 to 60 minutes) | activity against HIV in words ([2]; MAGI screening assay, HIV-1 IIIB) | infected cells remaining ([2]; after 2 min incubation) | HIV-1 89.6 inactivated [6] | inhibition of HIV-induced cell fusion in words [3] | SIVmac1A11 inactivated [7] | inhibition of gp120/CD4 binding in words [8] | inhibition of HIV-induced cell fusion in words [9]
O=S(=O)(O)c1ccc(-c2c3nc(c(-c4ccc(S(=O)(=O)O)cc4)c4ccc([nH]4)c(-c4ccc(S(=O)(=O)O)cc4)c4nc(c(-c5ccccc5)c5ccc2[nH]5)C=C4)C=C3)cc1 [TPPS3, meso-tetraphenylporphyrin trisulfonate] | −/4+ | −/4+ (key: 4+: more than 50% of nuclei are in syncytia; 3+: 30 to 50% of nuclei are in syncytia; 2+: 30 to 10% of nuclei are in syncytia; +: less than 10% of nuclei are in syncytia; −: no syncytia were observed) | 1+/4+ (key: 4+: more than 50% of nuclei are in syncytia; 3+: 30 to 50% of nuclei are in syncytia; 2+: 30 to 10% of nuclei are in syncytia; +: less than 10% of nuclei are in syncytia; −: no syncytia were observed) | 10 | − | 50 µg/mL | active |  |  |  |  |  |  |  |  | 
sulfonated 5,10,15,20-tetra-naphthalen-1-yl-porphyrin [TNapPS] |  |  |  |  | − | 75 µg/mL |  | significant activity | inhibited viral growth almost completely | most active | approximately 1% | 76% | complete inhibition | 88% | completely inhibit binding | Complete inhibition
